Laboratory results from patent US12139492B2 (Endotarget Inc., priority 2021, dated 2024).
Like-named read-outs stand apart in the source and are kept apart here.

How the values were obtained:
[1] = system: Mino cells; assay: Antiproliferative effect, MTS cell viability assay, Mino cells; type: cell-based; conditions: Homo sapiens, MINO, Mino mantle cell lymphoma cells; read-out: IC50 (anti-proliferation) Mino cells
Experimental: (§1) Antiproliferative effect of the exemplary compounds was assessed in B-cell malignancy models.
(§2) To assess the effect of the exemplary compounds on cell viability in B-cell malignancy models by degradation of BTK protein, Mino and JeKo-1 cells were treated with varying concentrations of Ibrutinib (0, 0.001, 0.01, 0.1, 1, 10 μM). Under these conditions, cell viability was determined by an MTS assay. Cytotoxicity was assayed by the determination of reduced tetrazolium (formazan) created by metabolically active cells as detected at 490 nm absorbance using a microplate reader (BMG Labtech, Cary, NC, USA).
(§3) The exemplary compounds attenuated the viability of Mino and JeKo-1 cells in a concentration-dependent manner at 72 h post treatment. Results are shown in Table 1 for each exemplary compound.

[2] = system: JeKo-1 cells; assay: Antiproliferative effect, MTS cell viability assay, JeKo-1 cells; type: cell-based; conditions: Homo sapiens; JeKo-1 mantle cell lymphoma cells; read-out: IC50 (anti-proliferation) JeKO-1 cells
Experimental: as §1, §2, §3

[3] = biological target: BTK (Homo sapiens, UniProt Q06187); assay: Degradation of BTK protein in Namalwa cells (Western blot; DC50, Dmax); conditions: for DC50: cell line not given
[4] = read-out: DC50 (BTK degradation), concentration giving 50% reduction of BTK expression level
[5] = read-out: Dmax (BTK degradation)

BTK, sequence (Q06187 whole entry): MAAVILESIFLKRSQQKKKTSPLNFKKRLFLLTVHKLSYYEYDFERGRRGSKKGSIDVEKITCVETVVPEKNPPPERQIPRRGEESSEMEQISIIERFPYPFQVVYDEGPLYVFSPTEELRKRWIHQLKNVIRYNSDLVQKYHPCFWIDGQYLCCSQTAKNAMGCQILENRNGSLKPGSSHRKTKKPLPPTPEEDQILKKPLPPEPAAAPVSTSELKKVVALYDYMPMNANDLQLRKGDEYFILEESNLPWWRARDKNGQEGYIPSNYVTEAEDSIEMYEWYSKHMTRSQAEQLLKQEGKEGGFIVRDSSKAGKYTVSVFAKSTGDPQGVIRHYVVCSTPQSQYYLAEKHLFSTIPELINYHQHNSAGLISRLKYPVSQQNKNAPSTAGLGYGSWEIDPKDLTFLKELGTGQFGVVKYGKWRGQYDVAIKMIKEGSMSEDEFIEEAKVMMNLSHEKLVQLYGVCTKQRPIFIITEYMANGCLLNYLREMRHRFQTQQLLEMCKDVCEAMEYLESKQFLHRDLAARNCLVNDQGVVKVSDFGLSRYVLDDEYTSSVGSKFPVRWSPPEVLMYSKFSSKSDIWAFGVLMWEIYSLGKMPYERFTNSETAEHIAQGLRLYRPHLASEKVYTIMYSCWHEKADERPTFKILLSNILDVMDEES

SMILES | IC50 [1] | IC50 [2] | DC50 [3, 4] | Dmax [3, 5] | Dmax [3] | DC50 ([3]; BTK degradation)
Nc1ncnc2c1c(-c1ccc(Oc3ccccc3)cc1)nn2C1CCN(C2CCN(CCCN3CCC(c4ccc(N5CCC(=O)NC5=O)cc4)CC3)C2)CC1 (stereo not shown) [Compound 576, 1-(4-(1-(3-(3-(4-(4-amino-3-(4-phenoxyphenyl)-1H-pyrazolo[3,4-d]pyrimidin-1-yl)piperidin-1-yl)pyrrolidin-1-yl)propyl)piperidin-4-yl)phenyl)dihydropyrimidine-2,4(1H,3H)-dione] | 1 to 10 µM | < 1 µM | < 0.01 µM | > 90% |  | 
Nc1ncnc2c1c(-c1ccc(Oc3ccccc3)cc1)nn2C1CCN(C[C@@H]2CCN(CC3CCN(c4ccc5c(c4)CN(C4CCC(=O)NC4=O)C5=O)CC3)C2)CC1 (stereo partly drawn) [Compound 446b, 3-(5-(4-(((S)-3-((4-(4-amino-3-(4-phenoxyphenyl)-1H-pyrazolo[3,4-d]pyrimidin-1-yl)piperidin-1-yl)methyl)pyrrolidin-1-yl)methyl)piperidin-1-yl)-1-oxoisoindolin-2-yl)piperidine-2,6-dione] | < 1 µM | 1 to 10 µM | 0.01 to 0.05 µM | > 90% |  | 
Nc1ncnc2c1c(-c1ccc(Oc3ccccc3)cc1)nn2C1CCN(C2CCN(C(=O)N3CCN(CCCN4CCC(c5ccc6c(c5)C(=O)N(C5CCC(=O)NC5=O)C6=O)CC4)CC3)CC2)CC1 (stereo not shown) [Compound 261, 5-(1-(3-(4-(4-(4-amino-3-(4-phenoxyphenyl)-1H-pyrazolo[3,4-d]pyrimidin-1-yl)-[1,4′-bipiperidine]-1′-carbonyl)piperazin-1-yl)propyl)piperidin-4-yl)-2-(2,6-dioxopiperidin-3-yl)isoindoline-1,3-dione] | > 10 µM | 1 to 10 µM |  |  | > 90% | 0.01 to 0.05 µM
Nc1ncnc2c1c(-c1ccc(Oc3ccccc3)cc1)nn2C1CCN(C2CCN(C(=O)N3CCC(CN4CCN(c5ccc6c(c5)CN(C5CCC(=O)NC5=O)C6=O)CC4)CC3)CC2)CC1 (stereo not shown) [Compound 240, 3-(5-(4-((1-(4-(4-amino-3-(4-phenoxyphenyl)-1H-pyrazolo[3,4-d]pyrimidin-1-yl)-[1,4′-bipiperidine]-1′-carbonyl)piperidin-4-yl)methyl)piperazin-1-yl)-1-oxoisoindolin-2-yl)piperidine-2,6-dione] | 1 to 10 µM | < 1 µM |  |  | > 90% | < 0.01 µM
NC(=O)c1c(-c2ccc(Oc3ccccc3)cc2)nn2c1NCC[C@H]2C1CCN(C(=O)N2CCN(CCC3CCN(c4ccc5c(c4)CN(C4CCC(=O)NC4=O)C5=O)CC3)CC2)CC1 (stereo partly drawn) [Compound 300, (7S)-7-(1-(4-(2-(1-(2-(2,6-dioxopiperidin-3-yl)-1-oxoisoindolin-5-yl)piperidin-4-yl)ethyl)piperazine-1-carbonyl)piperidin-4-yl)-2-(4-phenoxyphenyl)-4,5,6,7-tetrahydropyrazolo[1,5-a]pyrimidine-3-carboxamide] | 1 to 10 µM | 1 to 10 µM |  |  | > 75% | 0.01 to 0.05 µM
Nc1ncnc2c1c(-c1ccc(Oc3ccccc3)cc1)nn2C1CCN(CCN2CCC(CN3CCN(c4ccc(N5CCC(=O)NC5=O)cc4)CC3)CC2)CC1 [Compound 554, 1-(4-(4-((1-(2-(4-(4-amino-3-(4-phenoxyphenyl)-1H-pyrazolo[3,4-d]pyrimidin-1-yl)piperidin-1-yl)ethyl)piperidin-4-yl)methyl)piperazin-1-yl)phenyl)dihydropyrimidine-2,4(1H,3H)-dione] | < 1 µM | < 1 µM | < 0.01 µM | > 90% |  | 
NC(=O)c1c(-c2ccc(Oc3ccccc3)cc2)nn2c1NCC[C@H]2C1CCN(CC2CCN(C(=O)N3CCC(C4CCN(c5ccc6c(c5)C(=O)N(C5CCC(=O)NC5=O)C6=O)CC4)CC3)CC2)CC1 (stereo partly drawn) [Compound 405, (7S)-7-(1-((1-(1′-(2-(2,6-dioxopiperidin-3-yl)-1,3-dioxoisoindolin-5-yl)-[4,4′-bipiperidine]-1-carbonyl)piperidin-4-yl)methyl)piperidin-4-yl)-2-(4-phenoxyphenyl)-4,5,6,7-tetrahydropyrazolo[1,5-a]pyrimidine-3-carboxamide] | < 1 µM | 1 to 10 µM | 0.01 to 0.05 µM | > 90% |  | 
Nc1ncnc2c1c(-c1ccc(Oc3ccccc3)cc1)nn2C1CCC(CN2CC(N3CCN(c4ccc5c(c4)C(=O)N(C4CCC(=O)NC4=O)C5=O)CC3)C2)CC1 (stereo not shown) [Compound 532, 5-(4-(1-((4-(4-amino-3-(4-phenoxyphenyl)-1H-pyrazolo[3,4-d]pyrimidin-1-yl)cyclohexyl)methyl)azetidin-3-yl)piperazin-1-yl)-2-(2,6-dioxopiperidin-3-yl)isoindoline-1,3-dione] | < 1 µM | < 1 µM | < 0.01 µM | > 90% |  | 
NC(=O)c1c(-c2ccc(Oc3ccccc3)cc2)nn2c1NCCC2C1CCN(C(=O)N2CCN(CCN3CCN(c4ccc5c(c4)CN(C4CCC(=O)NC4=O)C5=O)CC3)CC2)CC1 (stereo not shown) [Compound 282, 7-(1-(4-(2-(4-(2-(2,6-dioxopiperidin-3-yl)-1-oxoisoindolin-5-yl)piperazin-1-yl)ethyl)piperazine-1-carbonyl)piperidin-4-yl)-2-(4-phenoxyphenyl)-4,5,6,7-tetrahydropyrazolo[1,5-a]pyrimidine-3-carboxamide] | 1 to 10 µM | > 10 µM |  |  | > 90% | 0.01 to 0.05 µM
Nc1ncnc2c1c(-c1ccc(Oc3ccccc3)cc1)nn2C1CCN(CC2CCN(CCN3CCC(c4ccc5c(c4)CN(C4CCC(=O)NC4=O)C5=O)CC3)CC2)CC1 (stereo not shown) [Compound 206, 3-(5-(1-(2-(4-((4-(4-amino-3-(4-phenoxyphenyl)-1H-pyrazolo[3,4-d]pyrimidin-1-yl)piperidin-1-yl)methyl)piperidin-1-yl)ethyl)piperidin-4-yl)-1-oxoisoindolin-2-yl)piperidine-2,6-dione] | < 1 µM | < 1 µM |  |  | > 90% | 0.01 to 0.05 µM
NC(=O)c1c(-c2ccc(Oc3ccccc3)cc2)nn2c1NCCC2C1CCN(C2CCN(C(=O)N3CCN(C4CCN(c5ccc6c(c5)CN(C5CCC(=O)NC5=O)C6=O)CC4)CC3)CC2)CC1 (stereo not shown) [Compound 346, 7-(1′-(4-(1-(2-(2,6-dioxopiperidin-3-yl)-1-oxoisoindolin-5-yl)piperidin-4-yl)piperazine-1-carbonyl)-[1,4′-bipiperidin]-4-yl)-2-(4-phenoxyphenyl)-4,5,6,7-tetrahydropyrazolo[1,5-a]pyrimidine-3-carboxamide] | < 1 µM | 1 to 10 µM |  |  | > 90% | < 0.01 µM
Nc1ncnc2c1c(-c1ccc(Oc3ccccc3)cc1)nn2C1CCN(CCCN2CCC(CN3CCN(c4ccc(NC5CCC(=O)NC5=O)cc4)CC3)C2)CC1 (stereo not shown) [Compound 565, 3-((4-(4-((1-(3-(4-(4-amino-3-(4-phenoxyphenyl)-1H-pyrazolo[3,4-d]pyrimidin-1-yl)piperidin-1-yl)propyl)pyrrolidin-3-yl)methyl)piperazin-1-yl)phenyl)amino)piperidine-2,6-dione] | < 1 µM | < 1 µM | 0.01 to 0.05 µM | > 75% |  | 
Nc1ncnc2c1c(-c1ccc(Oc3ccccc3)cc1)nn2C1CCN([C@@H]2CCN(CC3CN(c4ccc5c(c4)C(=O)N(C4CCC(=O)NC4=O)C5=O)C3)C2)CC1 (stereo partly drawn) [Compound 425a, 5-(3-(((R)-3-(4-(4-amino-3-(4-phenoxyphenyl)-1H-pyrazolo[3,4-d]pyrimidin-1-yl)piperidin-1-yl)pyrrolidin-1-yl)methyl)azetidin-1-yl)-2-(2,6-dioxopiperidin-3-yl)isoindoline-1,3-dione] | 1 to 10 µM | 1 to 10 µM | 0.01 to 0.05 µM | > 90% |  | 
Nc1ncnc2c1c(-c1ccc(Oc3ccccc3)cc1)nn2C1CCN(CC2CCN(CC3CN(c4ccc5c(c4)CN(C4CCC(=O)NC4=O)C5=O)C3)CC2)CC1 (stereo not shown) [Compound 430, 3-(5-(3-((4-((4-(4-amino-3-(4-phenoxyphenyl)-1H-pyrazolo[3,4-d]pyrimidin-1-yl)piperidin-1-yl)methyl)piperidin-1-yl)methyl)azetidin-1-yl)-1-oxoisoindolin-2-yl)piperidine-2,6-dione] | < 1 µM | < 1 µM | 0.01 to 0.05 µM | > 90% |  | 
NC(=O)c1c(-c2ccc(Oc3ccccc3)cc2)nn2c1NCC[C@H]2C1CCN(C2CCN(C(=O)N3CCC(N4CCN(c5ccc6c(c5)C(=O)N(C5CCC(=O)NC5=O)C6=O)CC4)CC3)CC2)CC1 (stereo partly drawn) [Compound 381, (7S)-7-(1′-(4-(4-(2-(2,6-dioxopiperidin-3-yl)-1,3-dioxoisoindolin-5-yl)piperazin-1-yl)piperidine-1-carbonyl)-[1,4′-bipiperidin]-4-yl)-2-(4-phenoxyphenyl)-4,5,6,7-tetrahydropyrazolo[1,5-a]pyrimidine-3-carboxamide] | < 1 µM | < 1 µM |  |  | > 90% | < 0.01 µM
Nc1ncnc2c1c(-c1ccc(Oc3ccccc3)cc1)nn2[C@@H]1CCCN(C2CCN(CC3CCN(c4ccc(C(=O)NC5CCC(=O)NC5=O)cc4)CC3)CC2)C1 (stereo partly drawn) [Compound 516, 4-(4-(((R)-3-(4-amino-3-(4-phenoxyphenyl)-1H-pyrazolo[3,4-d]pyrimidin-1-yl)-[1,4′-bipiperidin]-1′-yl)methyl)piperidin-1-yl)-N-(2,6-dioxopiperidin-3-yl)benzamide] | 1 to 10 µM | < 1 µM | < 0.01 µM | > 75% |  | 
